We go through 5 compounds from patent publication US12495798B2, “Nicotinamide compound and herbicidal composition comprising compound” (KOREA RESEARCH INSTITUTE OF CHEMICAL TECHNOLOGY, priority 2019, dated 2025).

Holding throughout (format): in vivo
The subject of one data set is soybean. In words: Phytotoxicity test for field crops (soil treatment test). Details: key: 0 (no harm); 9 (complete withered). As to the method:
(§1) Experimental Example 4: Phytotoxicity Test for Field Crops (Soil Treatment Test)
(§2) Soil treatment was performed for sown crops and weeds in a square plastic pot having a surface area of 50 cm^2 filled with sterilized horticultural soil (pH 6.1, organic material 1.0%, clay 21%, silt 17%, sand 52%). As a fertilizer per pot, 0.5 g of horticultural mixed fertilizer (N:P:K=17:21:17) was treated by mixing with soil. Five kinds of crops such as rice, wheat, corn, soybean, and cotton were sown in each pot. One day after sowing, test compound solutions were made by diluting with the diluent (33% acetone, 0.1% Tween-20) so that the final treatment amount of the test compounds was 19˜300 g a.i./ha. The prepared test compound solutions were treated using a spray booth (SB6-016) at a treatment amount of 100 ml per 1 m^2 of treatment area. The treated crops were managed in greenhouse conditions (average temperature 30±5° C., light/dark=14/10 hours). External symptoms and phytotoxicity were visually investigated 10 and 20 days after treatment. In the evaluation of the phytotoxicity for the crop, the grade of 0 (no harm) to 9 (complete withered) was used. The results of Table 10 were obtained by evaluating phytotoxicity value to the untreated control.

The next data set has as its system corn. Described as above. Details: key: 0 (no harm); 9 (complete withered). As to the method:
as §1, §2

In the next data set the test system is wheat. The description is as above. Details: key: 0 (no harm); 9 (complete withered). As to the method:
as §1, §2

A further data set relates to rice. The data set is described as above. Details: key: 0 (no harm); 9 (complete withered). The method, then: as §1, §2
A further data set concerns cotton. Described as above. Details: key: 0 (no harm); 9 (complete withered). As to the method: as §1, §2
The test system of a further data set is barnyard grass. In words: Herbicidal activity test against upland field weeds (foliar treatment test). The settings on record: Echinochloa crus-galli, 50 g ai/ha, scale 0-100. The essentials: (§3)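 Visual 0–100 control ratings relative to untreated plants, taken 14 (or 21) days after spraying foliage at 50 or 75 g a.i./ha. Spray solution: 50% acetone with 0.1% Tween-20; plants kept in greenhouse at 30±5 °C, 14 h light/10 h dark.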

Another data set has as its system fall panicum. The description is as above. The settings on record: Panicum dichotomiflorum, 50 g ai/ha, scale 0-100. The essentials: as §3
The next data set deals with quack grass. Described as above. Details: key to Foliar treatment herbicidal activity, quack grass: 0 (no control); 100 (complete control). The settings on record: 50 g ai/ha, scale 0-100. The essentials: as §3
Another data set concerns cocklebur. The data set is described as above. The settings on record: Xanthium strumarium, 50 g ai/ha, scale 0-100. The essentials:
as §3

The mark [1] stands for this setting: 50 g ai/ha, Soybean (10 days after treatment).
[2] abbreviates: 50 g ai/ha, Soybean (20 days after treatment).
Setting [3] is: 100 g ai/ha, Soybean (10 days after treatment).
[4] abbreviates: 100 g ai/ha, Soybean (20 days after treatment).
The mark [5] stands for this setting: 50 g ai/ha, Corn (10 days after treatment).
The mark [6] stands for this setting: 50 g ai/ha, Corn (20 days after treatment).
Setting [7] is: 100 g ai/ha, Corn (10 days after treatment).
[8] abbreviates: 100 g ai/ha, Corn (20 days after treatment).
The mark [9] stands for this setting: 50 g ai/ha, Wheat (10 days after treatment).
Setting [10] is: 50 g ai/ha, Wheat (20 days after treatment).
[11] abbreviates: 100 g ai/ha, Wheat (10 days after treatment).
Setting [12] is: 50 g ai/ha, Rice (10 days after treatment).
[13] abbreviates: 50 g ai/ha, Rice (20 days after treatment).
Where [14] appears, read: 100 g ai/ha, Rice (10 days after treatment).
Setting [15] is: 100 g ai/ha, Rice (20 days after treatment).
[16] abbreviates: 50 g ai/ha, Cotton (10 days after treatment).
Setting [17] is: 50 g ai/ha, Cotton (20 days after treatment).
Where [18] appears, read: 100 g ai/ha, Cotton (10 days after treatment).
Setting [19] is: 100 g ai/ha, Cotton (20 days after treatment).
[20] abbreviates: 100 g ai/ha, Wheat (20 days after treatment).

`CON(Cc1nnn(C)n1)Cc1nc(C(F)(F)F)ccc1C(=O)Nc1nnnn1C` [Compound No. 2-97, 2-((methoxy((2-methyl-2H-tetrazol-5-yl)methyl)amino)methyl)-N-(1-methyl-1H-tetrazol-5-yl)-6-(trifluoromethyl)nicotinamide]: the “Soil treatment phytotoxicity, Soybean” value with soybean (setting [1]), in the data set with soybean (setting [2]), in the data set on soybean (setting [3]) and in the data set with soybean (setting [4]) was 0 in each case. Also, the “Soil treatment phytotoxicity, Corn” value came to 0 with corn (setting [5]), 0 with corn (setting [6]), 1 in the data set with corn (setting [7]) and 0 in the data set with corn (setting [8]). The “Soil treatment phytotoxicity, Wheat” value with wheat (setting [9]), in the data set on wheat (setting [10]) and in the data set with wheat (setting [11]) was 0 each time. Further, the “Soil treatment phytotoxicity, Rice” value came out at 7 in the data set with rice (setting [12]), 9 in the data set on rice (setting [13]), 9 in the data set with rice (setting [14]) and 9 with rice (setting [15]). The “Soil treatment phytotoxicity, Cotton” value in the data set on cotton (setting [16]) was determined as 1; in the data set with cotton (setting [17]), 7; in the data set with cotton (setting [18]), 4; in the data set with cotton (setting [19]) it was 8. Further, the pest or weed control at 50 g/ha with barnyard grass, with fall panicum and with cocklebur was 95% throughout. In addition, the “Foliar treatment herbicidal activity, quack grass” value in the data set on quack grass came out at 0.
As for `Cn1nnc(CSCc2nc(C(F)(F)F)ccc2C(=O)N(c2nnnn2C)S(C)(=O)=O)n1` [Compound No. 2-110, N-(1-methyl-1H-tetrazol-5-yl)-2-((((2-methyl-2H-tetrazol-5-yl)methyl)thio)methyl)-N-(methylsulfonyl)-6-(trifluoromethyl)nicotinamide], the “Soil treatment phytotoxicity, Soybean” value with soybean (setting [2]) and in the data set with soybean (setting [4]) was 0 each time. Further, the “Soil treatment phytotoxicity, Corn” value in the data set with corn (setting [5]), in the data set on corn (setting [6]), with corn (setting [7]) and in the data set on corn (setting [8]) was 0 throughout. Also, the “Soil treatment phytotoxicity, Wheat” value with wheat (setting [9]), in the data set on wheat (setting [10]), in the data set on wheat (setting [11]) and in the data set with wheat (setting [20]) was 0 throughout. The “Soil treatment phytotoxicity, Rice” value in the data set with rice (setting [12]), in the data set with rice (setting [13]), in the data set with rice (setting [14]) and with rice (setting [15]) was 0 each time. The “Soil treatment phytotoxicity, Cotton” value with cotton (setting [16]), in the data set with cotton (setting [17]), with cotton (setting [18]) and in the data set with cotton (setting [19]) was 0 throughout. Besides, the pest or weed control – broadly, the degree to which the test organism was suppressed or injured, in per cent – at 50 g/ha came out at 20% with barnyard grass, 70% in the data set on fall panicum and 95% in the data set with cocklebur. Moreover, the “Foliar treatment herbicidal activity, quack grass” value in the data set with quack grass was 0.
Regarding `Cc1nc(COCc2nc(C(F)(F)F)ccc2C(=O)Nc2nnnn2C)nn1C` [Compound No. 2-116, 2-(((1,5-dimethyl-1H-1,2,4-triazol-3-yl)methoxy)methyl)-N-(1-methyl-1H-tetrazol-5-yl)-6-(trifluoromethyl)nicotinamide], the “Soil treatment phytotoxicity, Corn” value with corn (setting [5]) was determined as 1; in the data set on corn (setting [6]), 4; in the data set on corn (setting [7]) it was 1; with corn (setting [8]), 3. Also, the “Soil treatment phytotoxicity, Wheat” value with wheat (setting [9]) was 0; in the data set on wheat (setting [10]), 2; in the data set on wheat (setting [11]), 0; with wheat (setting [20]), 0. Besides, the “Soil treatment phytotoxicity, Rice” value in the data set with rice (setting [12]) was 0; in the data set on rice (setting [13]), 3; with rice (setting [14]), 0; in the data set on rice (setting [15]), 2. Besides, the “Soil treatment phytotoxicity, Cotton” value was found to be 1 with cotton (setting [16]), 3 in the data set with cotton (setting [17]), 1 in the data set on cotton (setting [18]) and 2 in the data set on cotton (setting [19]). For the same compound, the pest or weed control at 50 g/ha in the data set with barnyard grass was 98%; with fall panicum it was 80%; with cocklebur, 98%. The “Foliar treatment herbicidal activity, quack grass” value with quack grass is 0.
As to `Cn1nc(COCc2nc(C(F)(F)F)ccc2C(=O)Nc2nnnn2C)nc1C#N` [Compound No. 2-134, 2-(((5-cyano-1-methyl-1H-1,2,4-triazol-3-yl)methoxy)methyl)-N-(1-methyl-1H-tetrazol-5-yl)-6-(trifluoromethyl)nicotinamide], the “Soil treatment phytotoxicity, Soybean” value in the data set on soybean (setting [1]), with soybean (setting [2]), in the data set with soybean (setting [3]) and in the data set with soybean (setting [4]) was 0 in each case. Moreover, the “Soil treatment phytotoxicity, Corn” value in the data set on corn (setting [5]), with corn (setting [6]), in the data set with corn (setting [7]) and in the data set on corn (setting [8]) was 0 each time. In addition, the “Soil treatment phytotoxicity, Wheat” value in the data set on wheat (setting [9]), in the data set with wheat (setting [10]), in the data set on wheat (setting [11]) and with wheat (setting [20]) was 0 each time. Besides, the “Soil treatment phytotoxicity, Rice” value in the data set with rice (setting [12]) is on record as 1; in the data set on rice (setting [13]), 1; in the data set on rice (setting [14]) it was 5; in the data set with rice (setting [15]), 4. The “Soil treatment phytotoxicity, Cotton” value with cotton (setting [16]) worked out at 0; in the data set on cotton (setting [17]), 1; with cotton (setting [18]) it was 0; in the data set on cotton (setting [19]) it was 2. Further, the pest or weed control at 50 g/ha amounted to 98% in the data set with barnyard grass, 50% in the data set on fall panicum, 10% with quack grass and 50% with cocklebur.
Take `Cc1nc(COCc2nc(C(F)(F)F)ccc2C(=S)Nc2nnnn2C)nn1C` [Compound No. 2-117, 2-(((1,5-dimethyl-1H-1,2,4-triazol-3-yl)methoxy)methyl)-N-(1-methyl-1H-tetrazol-5-yl)-6-(trifluoromethyl)pyridin-3-carbothioamide]: the “Soil treatment phytotoxicity, Corn” value with corn (setting [5]) came to 1; in the data set with corn (setting [6]), 3; in the data set with corn (setting [7]), 2; in the data set with corn (setting [8]), 2. For the same compound, the “Soil treatment phytotoxicity, Wheat” value in the data set on wheat (setting [9]), in the data set on wheat (setting [10]), with wheat (setting [11]) and in the data set on wheat (setting [20]) was 0 throughout. The “Soil treatment phytotoxicity, Rice” value is reported as 0 with rice (setting [12]), 2 in the data set with rice (setting [13]), 0 in the data set with rice (setting [14]) and 3 with rice (setting [15]). The “Soil treatment phytotoxicity, Cotton” value was 0 with cotton (setting [16]), 9 in the data set on cotton (setting [17]), 0 in the data set on cotton (setting [18]) and 9 with cotton (setting [19]). In addition, the pest or weed control at 50 g/ha was 98% in the data set with barnyard grass, 40% with fall panicum and 90% in the data set on cocklebur. In the data set with quack grass, the “Foliar treatment herbicidal activity, quack grass” value worked out at 0.
